This note sets out measurements from patent US20060040957A1, “BICYCLIC PYRIMIDINE MATRIX METALLOPROTEINASE INHIBITORS” (priority 2001, published 2006).

The target of data set [1] is MMP-14CD (catalytic domain of MMP-14) (Homo sapiens, UniProt P50281). The data set can be described thus: Thiopeptolide substrate hydrolysis assay, MMP-14CD. The format is biochemical. The conditions noted are these: HEPES pH 7.0, 22° C., read-out: IC50 (μM) Versus Certain MMPs: MMP-14 CD. The source says:
(§1) The invention compounds of Formula I have been evaluated in standard assays for their ability to inhibit the catalytic activity of various MMP enzymes.
(§2) Thiopeptolide substrates show virtually no decomposition or hydrolysis at or below neutral pH in the absence of a matrix metalloproteinase enzyme.
(§3) Several representative compounds have been evaluated for their ability to inhibit various matrix metalloproteinase enzymes.

In data set [2] the target is MMP-9FL (full length Gelatinase B) (Homo sapiens, UniProt P14780). Put plainly: Thiopeptolide substrate hydrolysis assay, MMP-9FL. The format is biochemical. The conditions noted are these: HEPES pH 7.0, 22° C., read-out: IC50 (μM) Versus Certain MMPs: MMP-09 FL.
Sequence of MMP-9FL (full length Gelatinase B) (P14780 94-707, species assumed): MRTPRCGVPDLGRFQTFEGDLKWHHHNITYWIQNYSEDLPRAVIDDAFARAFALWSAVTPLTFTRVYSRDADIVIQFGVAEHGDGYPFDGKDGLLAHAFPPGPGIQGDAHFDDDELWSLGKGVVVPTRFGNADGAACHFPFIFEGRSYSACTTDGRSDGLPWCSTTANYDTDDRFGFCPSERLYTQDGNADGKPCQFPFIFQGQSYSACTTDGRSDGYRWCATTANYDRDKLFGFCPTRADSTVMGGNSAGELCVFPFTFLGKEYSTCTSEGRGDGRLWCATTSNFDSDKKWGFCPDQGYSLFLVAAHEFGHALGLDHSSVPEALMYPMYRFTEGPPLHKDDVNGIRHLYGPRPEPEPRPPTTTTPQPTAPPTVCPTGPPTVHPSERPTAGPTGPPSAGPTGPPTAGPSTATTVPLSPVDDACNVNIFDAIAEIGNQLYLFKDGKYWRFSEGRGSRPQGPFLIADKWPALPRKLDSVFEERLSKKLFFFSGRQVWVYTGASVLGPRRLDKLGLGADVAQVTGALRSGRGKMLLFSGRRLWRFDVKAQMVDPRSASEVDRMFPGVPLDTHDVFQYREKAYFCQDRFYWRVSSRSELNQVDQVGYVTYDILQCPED
From the text: as §1, §2, §3

The target in data set [3] is T1, MMP-2FL (full length Gelatinase A) (Homo sapiens, UniProt P08253).
T1 sequence (P08253 110-660): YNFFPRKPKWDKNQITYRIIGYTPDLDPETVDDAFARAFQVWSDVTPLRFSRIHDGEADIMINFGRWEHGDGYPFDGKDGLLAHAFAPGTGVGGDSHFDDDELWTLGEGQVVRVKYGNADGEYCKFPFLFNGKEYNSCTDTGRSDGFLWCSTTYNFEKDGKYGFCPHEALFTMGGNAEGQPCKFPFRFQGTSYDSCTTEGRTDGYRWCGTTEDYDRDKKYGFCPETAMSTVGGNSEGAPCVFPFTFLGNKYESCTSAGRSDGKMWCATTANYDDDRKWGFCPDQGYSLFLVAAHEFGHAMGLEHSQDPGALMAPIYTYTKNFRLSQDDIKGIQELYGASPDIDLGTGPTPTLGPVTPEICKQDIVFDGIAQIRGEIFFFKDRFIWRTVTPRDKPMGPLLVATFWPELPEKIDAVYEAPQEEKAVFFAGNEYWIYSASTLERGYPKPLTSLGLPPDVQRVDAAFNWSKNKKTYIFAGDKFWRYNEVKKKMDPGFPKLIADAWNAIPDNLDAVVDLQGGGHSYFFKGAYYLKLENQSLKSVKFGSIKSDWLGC
The data set can be described thus: Thiopeptolide substrate hydrolysis assay, MMP-2FL. The data set is classed as biochemical. The conditions noted are these: HEPES pH 7.0, 22° C., read-out: IC50 (μM) Versus Certain MMPs: MMP-02 FL.
From the text: as §1, §2, §3

The target of data set [4] is T2, MMP-7FL (full length matrilysin) (Homo sapiens, UniProt P09237).
T2 sequence (P09237 95-267): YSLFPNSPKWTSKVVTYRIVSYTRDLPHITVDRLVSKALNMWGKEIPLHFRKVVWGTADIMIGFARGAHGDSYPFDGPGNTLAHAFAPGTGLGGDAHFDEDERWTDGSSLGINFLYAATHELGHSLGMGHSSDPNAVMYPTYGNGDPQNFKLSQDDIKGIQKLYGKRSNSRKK
The data set can be described thus: Thiopeptolide substrate hydrolysis assay, MMP-7FL. The data set is classed as biochemical. The conditions noted are these: HEPES pH 7.0, 22° C., read-out: IC50 (μM) Versus Certain MMPs: MMP-07 FL.
From the text: as §1, §2, §3

In data set [5] the target is MMP-13CD (catalytic domain of collagenase 3) (Homo sapiens, UniProt P45452). Put plainly: Thiopeptolide substrate hydrolysis assay, MMP-13CD. The format is biochemical. The conditions noted are these: thiopeptolide substrate, HEPES pH 7.0, 22° C.; read-out: IC50 (μM) Versus Certain MMPs: MMP-13 CD.
From the text: as §2

Counter-ions that a name gives are not always drawn.

For orientation: IC50 means the concentration that inhibits the measured activity by half. A word on the melting point: it is the temperature of the solid-liquid transition. In the case of `Cc1c(=O)n(Cc2ccccc2)c(=O)n2cc(C(=O)NCc3ccccc3)sc12` [Example 16, 6-Benzyl-8-methyl-5,7-dioxo-6,7-dihydro-5H-thiazolo[3,2-c]pyrimidine-2-carboxylic acid benzylamide], the melting point was in the range of 176 to 178 °C. Further, in data set [1], the IC50 was over 30 µM. In addition, the IC50 in data set [2] was over 100 µM. For the same molecule, the IC50 in data set [3] was over 100 µM. Besides, in data set [4], the IC50 was over 30 µM.

Molecule `Cc1c(=O)n(Cc2ccccc2)c(=O)n2cc(C(=O)NCc3ccc(Cl)c(Cl)c3)sc12` [Example 18, 6-Benzyl-8-methyl-5,7-dioxo-6,7-dihydro-5H-thiazolo[3,2-c]pyrimidine-2-carboxylic acid 3,4-dichlorobenzylamide] came in with a melting point of 180 to 182 °C. Further, in data set [1], the IC50 was over 30 µM. In addition, the IC50 in data set [2] was over 30 µM. In addition, the IC50 in data set [3] is over 30 µM. For the same molecule, the IC50 in data set [4] is over 30 µM.

`COC(=O)c1ccc(Cn2c(=O)c(C)c3sc(C(=O)NCc4ccc(F)cc4)cn3c2=O)cc1` [Example 106, 4-[2-(4-Fluoro-benzylcarbamoyl)-8-methyl-5,7-dioxo-7H-thiazolo[3,2-c]pyrimidin-6-ylmethyl]-benzoic acid methyl ester] came in with a melting point of over 215 °C. Also, in data set [1], the IC50 was over 100 µM. The IC50 in data set [2] is over 100 µM. Besides, in data set [3], the IC50 is over 30 µM. Besides, the concentration for half-maximal inhibition (IC50) in data set [4] was over 30 µM.

Molecule `Cc1c(=O)n(Cc2ccc(C#N)cc2)c(=O)n2cc(C(=O)NCc3ccc(F)cc3)sc12` [Example 107, 6-(4-Cyano-benzyl)-8-methyl-5,7-dioxo-6,7-dihydro-5H-thiazolo[3,2-c]pyrimidine-2-carboxylic acid 4-fluoro-benzylamide] yielded a melting point of over 220 °C. Besides, the IC50 in data set [1] was over 30 µM. Moreover, the IC50 in data set [2] was over 30 µM. Moreover, in data set [3], the IC50 was over 30 µM. Further, in data set [4], the IC50 was over 30 µM.

Turning to `O=C(NCc1ccccc1)c1cn2c(=O)n(Cc3ccc(Cl)cc3)c(=O)cc2s1` [Example 13, 6-(4-Chlorobenzyl)-5,7-dioxo-6,7-dihydro-5H-thiazolo[3,2-c]pyrimidine-2-carboxylic acid benzylamide], the melting point was over 220 °C. Moreover, the concentration for half-maximal inhibition (IC50) in data set [1] was over 100 µM. Also, in data set [2], the IC50 is over 100 µM. The IC50 in data set [3] is over 100 µM. Besides, the IC50 in data set [4] was over 100 µM.

For the molecule `COC(=O)c1ccc(Cn2c(=O)c(C)c3sc(C(=O)NCc4cccc(F)c4)cn3c2=O)cc1` [Example 105, 4-[2-(3-Fluoro-benzylcarbamoyl)-8-methyl-5,7-dioxo-7H-thiazolo[3,2-c]pyrimidin-6-ylmethyl]-benzoic acid methyl ester], the melting point was in the range of 209 to 211 °C. In addition, in data set [1], the half-maximal inhibitory concentration (IC50) was over 30 µM. Besides, in data set [2], the IC50 is over 30 µM. In addition, the IC50 in data set [3] was over 30 µM. For the same molecule, the IC50 in data set [4] was 27 µM.

As for `COc1ccc(CNC(=O)c2cn3c(=O)n(Cc4ccccc4)c(=O)c(C)c3s2)cc1` [Example 17, 6-Benzyl-8-methyl-5,7-dioxo-6,7-dihydro-5H-thiazolo[3,2-c]pyrimidine-2-carboxylic acid 4-methoxybenzylamide], the melting point was 160 to 162 °C. The IC50 in data set [1] is over 30 µM. In data set [2], the IC50 was over 30 µM. Moreover, the half-maximal inhibitory concentration (IC50) in data set [3] was over 30 µM. The IC50 in data set [4] was over 30 µM.

In turn, `COC(=O)c1ccc(Cn2c(=O)c(C)c3sc(C(=O)NCc4ccc(F)cc4)cn3c2=O)cc1Cl` [Example 65, 2-Chloro-4-[2-(4-fluoro-benzylcarbamoyl)-8-methyl-5,7-dioxo-7H-thiazolo[3,2-c]pyrimidin-6-ylmethyl]-benzoic acid methyl ester] came in with a melting point of 176 to 178 °C. Besides, the IC50 in data set [1] is over 30 µM. Moreover, the concentration for half-maximal inhibition (IC50) in data set [2] is over 30 µM. The IC50 in data set [3] is over 30 µM. In addition, the half-maximal inhibitory concentration (IC50) in data set [4] was found to be 26 µM.

On to `Cc1c(=O)n(Cc2ccc(C#N)cc2)c(=O)n2cc(C(=O)NCc3ccncc3)sc12` [Example 85, 6-(4-Cyano-benzyl)-8-methyl-5,7-dioxo-6,7-dihydro-5H-thiazolo[3,2-c]pyrimidine-2-carboxylic acid(pyridin-4-ylmethyl)-amide hydrochloride], for which the IC50 is 0.0547 µM in data set [5]; over 30 µM in data set [1]; over 30 µM in data set [2]; over 30 µM in data set [3]; over 30 µM in data set [4].

In turn, `COC(=O)c1ccc(Cn2c(=O)c(C)c3sc(C(=O)NCc4ccc(F)cc4)cn3c2=O)cc1C` [Example 68, 4-[2-(4-Fluoro-benzylcarbamoyl)-8-methyl-5,7-dioxo-7H-thiazolo[3,2-c]pyrimidin-6-ylmethyl]-2-methyl-benzoic acid methyl ester] returned a melting point of 179 to 180 °C. Further, the half-inhibitory concentration (IC50) in data set [1] is over 100 µM. Moreover, the IC50 in data set [2] is over 100 µM. In data set [3], the half-inhibitory concentration (IC50) is over 100 µM. Further, the IC50 in data set [4] is over 100 µM.

For the molecule `COc1ccc(CNC(=O)c2cn3c(=O)n(Cc4ccc(Cl)c(Cl)c4)c(=O)cc3s2)cc1` [Example 102, 6-(3,4-Dichloro-benzyl)-5,7-dioxo-6,7-dihydro-5H-thiazolo[3,2-c]pyrimidine-2-carboxylic acid 4-methoxy-benzylamide], the melting point was in the range of 206 to 207 °C.

Regarding `Cc1c(=O)n(Cc2ccc(C(=O)OC(C)(C)C)cc2)c(=O)n2ccsc12` [Example 104, 4-(8-Methyl-5,7-dioxo-7H-thiazolo[3,2-c]pyrimidin-6-ylmethyl)-benzoic acid tert-butyl ester], the melting point fell in the range of 163 to 165 °C.

`O=C(NCc1ccccc1)c1cn2c(=O)n(Cc3ccncc3)c(=O)cc2s1` (as salt: hydrochloride) (hydrate or solvate) [Example 15, 6-(4-Pyridylmethyl)-5,7-dioxo-6,7-dihydro-5H-thiazolo[3,2-c]pyrimidine-2-carboxylic acid benzylamide hydrochloride] gave a melting point of over 210 °C.

`COc1ccc(CNC(=O)c2cn3c(=O)n(Cc4ccc(C(=O)O)cc4)c(=O)c(C)c3s2)cc1` [Example 55, 4-[2-(4-Methoxy-benzylcarbamoyl)-8-methyl-5,7-dioxo-7H-thiazolo[3,2-c]pyrimidin-6-ylmethyl]-benzoic acid]: the melting point is over 210 °C.

For `Cc1c(=O)n(Cc2ccc(C(=O)O)cc2)c(=O)n2cc(C(=O)NCc3ccc(F)cc3)sc12` [Example 58, 4-[2-(4-Fluoro-benzylcarbamoyl)-8-methyl-5,7-dioxo-7H-thiazolo[3,2-c]pyrimidin-6-ylmethyl]-benzoic acid], the IC50 was 0.00222 µM in data set [5]; over 100 µM in data set [1]; over 100 µM in data set [2]; over 100 µM in data set [3]; over 100 µM in data set [4].

As to `O=C(NCc1ccccc1)c1cn2c(=O)n(C(=O)c3ccccc3)c(=O)cc2s1` [Example 11, 6-Benzoyl-5,7-dioxo-6,7-dihydro-5H-thiazolo[3,2-c]pyrimidine-2-carboxylic acid benzylamide], the melting point is 204 to 207 °C (dec.). Further, the IC50 in data set [1] was over 30 µM. Besides, the IC50 in data set [2] was over 30 µM. In data set [3], the IC50 is over 30 µM. For the same molecule, the IC50 in data set [4] is over 30 µM.

`Cc1c(=O)[nH]c(=O)n2cc(C(=O)O)sc12` [Example 54, 8-Methyl-5,7-dioxo-6,7-dihydro-5H-thiazolo[3,2-c]pyrimidine-2-carboxylic acid] yielded a melting point of over 205 °C.
